{"source": "patent US10865188B2", "about": "“Dibenzo azepine compounds and their use in the treatment of otic diseases and disorders” (Pipeline Therapeutics, Inc., priority 2015, dated 2020)", "key": {"[1]": {"assay": "Guinea pig PK after transtympanic delivery (perilymph and cochlea, LC/MS/MS)", "format": "in vivo", "conditions": "for concentration at 1 day / concentration at 7 day / concentration at 14 day / concentration at 28 day / concentration at 42 day / concentration at 56 day: male, Hartley, other: transtympanic, 30 μL, 30 μL transtympanic; for concentration at 1 day: Day 1, LLOQ = 0.08 μM; for concentration at 7 day: Day 7, LLOQ = 0.08 μM; for concentration at 14 day: Day 14, LLOQ = 0.08 μM; for concentration at 28 day: Day 28, LLOQ = 0.08 μM; for concentration at 42 day: Day 42, LLOQ = 0.08 μM; for concentration at 56 day: Day 56, LLOQ = 0.08 μM", "source_text": "(§1) Male Hartley guinea pigs (300-350 g) were anesthetized with ketamine and xylazine. Thirty microliters of an aqueous pharmaceutical composition of the instant embodiments was delivered transtympanically to deposit the drug to the round window membrane. Delivery was unilateral. The animals were placed in a warm chamber in a lateral recumbent position keeping the dosed ear side up until they recover from anesthesia.\nAt various timepoints after administration, the animals were euthanized by CO2 inhalation. Blood and CSF were collected and stored at −80° C. The animals were decapitated, the temporal bones removed and the bulla opened to expose the otic capsule. Ipsilateral and contralateral perilymph were collected from the apex using a microcapillary tube. The ipsilateral cochlea was removed from the otic capsule and stored at −80° C. All tissues collected were analyzed using LC/MS/MS for test compound concentration as follows. Analytical standards were prepared by spiking known concentrations of the test compound stock solutions into matrices such as plasma or artificial CSF. Fixed amounts of tissues collected and spiked standards were precipitated with acetonitrile containing buspirone as an internal standard. The precipitated samples were centrifuged at 4000 g for 10 minutes at 4° C. The supernatants were analyzed using LC-MS/MS. The LC-MS/MS system was set up using the AB Sciex 4000 Qtrap (AB Sciex, Framingham, Mass.) equipped with Agilent 1200 series HPLC and CTC PAL Autosampler (Agilent Technologies, Santa Clara, Calif.).\nLiquid compositions described herein were evaluated using the method described in Part E of the Biological Function section provided above. The liquid compositions prepared as described in Example 5(a)-5(d) were each drawn into a 1 mL syringe. Using the filled 1 mL syringe, the liquid composition was back-filled at 5° C. into a 100 μL Hamilton syringe adapted with 28 gauge needle. The Hamilton syringe was then allowed to warm to room temperature.\nas §1, with “the above liquid” for “an aqueous pharmaceutical”, “were” for “of the instant embodiments was”, “The delivery” for “Delivery”, “recovered” for “recover”\nAt various timepoints after administration, the animals were euthanized by CO2 inhalation. Blood and cerebrospinal fluid were collected and stored at −80° C. The animals were decapitated, the temporal bones removed and the bulla were opened to expose the otic capsule. Ipsilateral and contralateral perilymph were collected from the apex using a microcapillary tube. The ipsilateral cochlea was removed from the otic capsule and was stored at −80° C. All tissues collected were analyzed using LC/MS/MS as described in Part E of the Biological Function section above.\nThe concentrations of Compound I and Compound II were measured using LC/MS/MS in both the perilymph fluid and the cochlea tissue after a transtympanic injection of an instant formulation of either the crystalline form or the amorphous form at various time points. […] Concentration of the instant compounds in the perilymph and/or cochlea tissue was above the human NSC EC50 for Atoh1, an indicator that the subject compounds may be efficacious in hair cell regeneration and hearing restoration in human. […] Table 3 below lists the results for the studies using aqueous formulations of crystalline Compound I while Table 4 below lists those for aqueous formulations of crystalline Compound II. The results for aqueous formulations of crystalline Compound I are also graphically shown in FIG. 5A and FIG. 5B while the results for aqueous formulations of crystalline Compound II are graphically shown in FIG. 6A and FIG. 6B."}, "Atoh1": {"system": "Atoh1", "assay": "Human neural stem cell assay, Atoh1 gene expression (real-time PCR)", "format": "cell-based", "conditions": "human neural stem cells, 7 point CRC, read-out: hNSC Atoh1 EC50", "protocol": "(§2) Neural stem cells (NSC) were derived from embryonic stem cells using a published protocol (Yuan et al., Mar. 2, 2011, PLoS ONE, 6(3):e17540). Cells were sorted and characterized at passage 3 and were expanded. Cells were then frozen at passage 5. Cells were maintained in NSC media (DMEM/F12, N2 (1×), B27(1×) (Invitrogen), and Pen/Strep (1×) (Life Technologies) with 20 ng/ml bFGF (BD Bioscience/Corning)). On day 1, cells were plated in 96 well plates that have been previously coated with poly-ornithin and laminin, 60,000 cells/well in 100 μl of media. On day 2, spent media was removed, and 180 μl of fresh media was added to the cells. Later that same day (day 2), cells were treated with 20 μl of NSC media containing test compounds (7 point CRC). On day 3, spent media was removed and 140 μl of RLT/bME was added to the cells. RNA was extracted using the QiaCube (Qiagen®, Germantown, Md., USA) using the total RNA extraction+DNAse protocol. RNA was then reverse-transcribed to cDNA using iScript (Bio-Rad, Hercules, Calif., USA). cDNA was then used for real-time PCR analysis using iTaq Sybergreen (BioRad). Expression of Atoh1, Hes5, Hes1, Myosin7a genes was evaluated using CFX96 or CFX384 (Bio-Rad). HPRT1 was used as a reference gene. Analysis was done using Microsoft® Excel® and CBIS (ChemInnovation Software, Inc., San Diego, Calif., USA). […]"}, "HES5": {"system": "HES5", "assay": "Human neural stem cell assay, Hes5 gene expression (real-time PCR)", "format": "cell-based", "conditions": "human neural stem cells, 7 point CRC, read-out: hNSC HES5 IC50", "protocol": "as §2"}, "mice": {"system": "mice", "assay": "Auditory brainstem response (ABR) hearing threshold", "format": "in vivo", "conditions": "formulations of Examples 3(c) and 3(d) (2% w/v crystalline, poloxamer 407)", "protocol": "Surgery was performed on naïve mice or mice with noise or pharmacologically-damaged ears. The animals were anesthetized with isoflurane and an 8 mm retroauricular incision was made to the lower caudal edge of the pinna. The skin was retracted and the fatty tissue was blunt dissected away from where the facial nerve and muscle come together. The muscle was retracted to reveal an area in the tympanic bulla where the bone was thin. A 30 g needle was used to drill a hole in the exposed thin portion of the otic bulla. A Hamilton syringe equipped with a 32 g blunt needle was inserted into the opening of the otic bulla. The drug formulation was delivered by injection and the needle removed. Wound closure was made with tissue glue.\nNaïve mice or mice at various times after either noise or pharmacological deafening were anesthetized with ketamine/xylazine/acepromazine and the auditory brainstem response was determined in both ears using a Tucker Davis (Alachua, Fla.) RZ6 apparatus. The mice were exposed to clicks or pure tones of 4, 8, 16, 24 and 32 kHz at 90-10 dB in 10 dB descending steps and the hearing threshold was determined."}, "[2]": {"conditions": "cochlea, Amorphous form (Example 5(d)), read-out: Cochlea Average concentration"}, "[3]": {"conditions": "cochlea, Crystalline form (Example 5(c)), read-out: Cochlea Average concentration"}, "[4]": {"conditions": "perilymph, Amorphous form (Example 5(d)), read-out: perilymph Average concentration"}, "[5]": {"conditions": "perilymph, Crystalline form (Example 5(c)), read-out: Perilymph Average concentration"}}, "note": "pEC50, pIC50: −log10 of the molar value. Like-named read-outs stand apart in the source and are kept apart here.", "data": [{"smiles": "CN1C(=O)[C@@H](NC(=O)[C@](C)(F)C(=O)NCC(F)(F)C(F)(F)F)c2ccccc2-c2ccccc21", "note": "[Compound II, (2R)-2-fluoro-2-methyl-N—[(S)-5-methyl-6-oxo-6,7-dihydro-5H-dibenzo[b,d]azepin-7-yl]-N′-(2,2,3,3,3-pentafluoropropyl)malonamide]", "values": [{"measurement": "concentration in the perilymph and the cochlea compared with the human NSC EC50 for Atoh1", "setting": "[1]; dosed as the amorphous form, transtympanic", "value": "above the human NSC EC50 for Atoh1 at 1 day and 7 days"}, {"measurement": "concentration in the perilymph and the cochlea compared with the human NSC EC50 for Atoh1", "setting": "[1]; dosed as the crystalline form, transtympanic", "value": "above the human NSC EC50 Atoh1 from day 1 to day 42"}, {"measurement": "concentration at 1 day", "setting": "[1]; [2]", "value": 829, "unit": "µM"}, {"measurement": "concentration at 7 day", "setting": "[1]; [2]", "value": 18.1, "unit": "µM"}, {"measurement": "concentration at 14 day", "setting": "[1]; [2]", "value": 0, "unit": "µM"}, {"measurement": "concentration at 28 day", "setting": "[1]; [2]", "value": 0, "unit": "µM"}, {"measurement": "concentration at 1 day", "setting": "[1]; [3]", "value": 5280, "unit": "µM"}, {"measurement": "concentration at 7 day", "setting": "[1]; [3]", "value": 46.1, "unit": "µM"}, {"measurement": "concentration at 14 day", "setting": "[1]; [3]", "value": 222, "unit": "µM"}, {"measurement": "concentration at 28 day", "setting": "[1]; [3]", "value": 7.6, "unit": "µM"}, {"measurement": "concentration at 42 day", "setting": "[1]; [3]", "value": 0.6, "unit": "µM"}, {"measurement": "concentration at 56 day", "setting": "[1]; [3]", "value": 0, "unit": "nM"}, {"measurement": "concentration at 1 day", "setting": "[1]; [4]", "value": 159, "unit": "µM"}, {"measurement": "concentration at 7 day", "setting": "[1]; [4]", "value": 178, "unit": "µM"}, {"measurement": "concentration at 14 day", "setting": "[1]; [4]", "value": 0, "unit": "µM"}, {"measurement": "concentration at 28 day", "setting": "[1]; [4]", "value": 0, "unit": "µM"}, {"measurement": "concentration at 1 day", "setting": "[1]; [5]", "value": 502, "unit": "µM"}, {"measurement": "concentration at 7 day", "setting": "[1]; [5]", "value": 26, "unit": "µM"}, {"measurement": "concentration at 14 day", "setting": "[1]; [5]", "value": 26, "unit": "µM"}, {"measurement": "concentration at 28 day", "setting": "[1]; [5]", "value": 2.2, "unit": "µM"}, {"measurement": "concentration at 42 day", "setting": "[1]; [5]", "value": 0.3, "unit": "µM"}, {"measurement": "concentration at 56 day", "setting": "[1]; [5]", "value": 0, "unit": "nM"}, {"measurement": "exposure to the inner ear, crystalline formulation versus respective amorphous formulation", "setting": "[1]; transtympanic, formulations of Example 5(a)-5(d)", "value": "longer exposure"}, {"measurement": "pEC50", "setting": "Atoh1", "value": 7.64}, {"measurement": "pIC50", "setting": "HES5", "value": 7.64}, {"measurement": "ABR Threshold Improvement", "setting": "mice; 16 kHz", "value": 8, "unit": "dB"}, {"measurement": "ABR Threshold Improvement", "setting": "mice; 24 kHz", "value": 11, "unit": "dB"}, {"measurement": "ABR Threshold Improvement", "setting": "mice; 32 kHz", "value": 7, "unit": "dB"}]}]}
